Experimental data reported in patent publication US20030013643A1, “Prevention and treatment of streptococcal and staphylococcal infection” (priority 2000, published 2003).

How the values were obtained:
human keratinocytes [1] = assay: Confocal microscopy of actin projections / lamellipodia in keratinocytes exposed to wild-type GAS; format: cell-based; details: incubation of keratinocytes with inhibitor
Method: GAS strains were 950771, an M-type 3 strain originally isolated from a child with necrotizing fasciitis, and 188, an isogenic acapsular mutant derived from 950771 (Ashbaugh, C. D., et al., (1998) J. Clin. Invest. 102, 550-560). Bacteria were cultured in Todd Hewitt broth (Difco, Sparks, Md.) to early exponential phase. For preparation of polarized keratinocyte monolayers, human squamous cell carcinoma cell line, SCC13, derived from cheek epidermis (Cline, P. R. & Rice, R. H. (1983) Cancer Res. 43, 3203-3207) was cultured to confluence in serum-free keratinocyte medium (Gibco BRL, Rockville, Md.) supplemented with 50 μg/ml bovine pituitary extract, 0.1 ng/ml epidermal growth factor and 0.3 mM calcium chloride (c-SFM). Certain experiments were performed also using cell monolayers prepared from OKP7 primary human keratinocytes (Crowe et al. (1991) Differentiation 48, 199-208). […] Once confluent, the integrity of the monolayer was assessed routinely by measuring permeability to sodium fluorescein (Tchao, R. (1988) Alternative Methods in Toxicology (eds. Goldberg, A. M.) 271-283 (Ann Liebert, N.Y.) and, in some experiments, by measuring transepithelial electrical resistance (McNamara, B. P., et al. (2001) J Clin Invest 107, 621-9). […]

[2] = tested on: wild-type GAS, strain 950771; assay: GAS translocation through polarized human keratinocyte monolayers; format: cell-based, Streptococcus pyogenes; details: for blocking of translocating GAS: pre-treated 30 minutes with 2 mg/ml, compared to untreated monolayers
Method: Human keratinocytes were cultured on 3.0 μm filters to allow polarization and establishment of functional intercellular tight junctions. Cells were infected as described previously with wild-type GAS, strain 950771. To assess the ability of exogenously added HA to inhibit the translocation of GAS through the keratinocyte monolayer, cells were pre-treated for 30 minutes with either 2 mg/ml of hyaluronic acid (HA) or another acidic polysaccharide, alginate (AL), at the same concentration. Aliquots of media from the lower chamber of infected keratinocyte monolayers were cultured on blood agar plates at 1 and 2 hours after inoculation with bacteria to assess the number of translocating bacteria. […] In contrast only 20% and 25% of the wild-type bacteria were blocked by AL at 1 and 2 hours, respectively.
GAS strains were 950771, an M-type 3 strain originally isolated from a child with necrotizing fasciitis, and 188, an isogenic acapsular mutant derived from 950771 (Ashbaugh, C. D., et al., (1998) J. Clin. Invest. 102, 550-560). Bacteria were cultured in Todd Hewitt broth (Difco, Sparks, Md.) to early exponential phase. For preparation of polarized keratinocyte monolayers, human squamous cell carcinoma cell line, SCC13, derived from cheek epidermis (Cline, P. R. & Rice, R. H. (1983) Cancer Res. 43, 3203-3207) was cultured to confluence in serum-free keratinocyte medium (Gibco BRL, Rockville, Md.) supplemented with 50 μg/ml bovine pituitary extract, 0.1 ng/ml epidermal growth factor and 0.3 mM calcium chloride (c-SFM). Certain experiments were performed also using cell monolayers prepared from OKP7 primary human keratinocytes (Crowe et al. (1991) Differentiation 48, 199-208). Keratinocytes were seeded at 5×10^5 cells per well onto polycarbonate Transwell membrane supports (12-well plates, 3.0 μm pore size; Costar, Corning, N.Y.) and cultured for 6-10 days at 37° C. with 5% CO2 in c-SFM, with daily medium changes. Once confluent, the integrity of the monolayer was assessed routinely by measuring permeability to sodium fluorescein (Tchao, R. (1988) Alternative Methods in Toxicology (eds. Goldberg, A. M.) 271-283 (Ann Liebert, N.Y.) and, in some experiments, by measuring transepithelial electrical resistance (McNamara, B. P., et al. (2001) J Clin Invest 107, 621-9).
Keratinocyte monolayers on Transwells were inoculated with GAS at a multiplicity of infection of 10 per keratinocyte. Monolayers were incubated at 37° C. with 5% CO2. The keratinocyte medium in the upper chamber was replaced two hours after adding GAS, and the Transwell inserts containing the keratinocytes were moved to new wells containing fresh medium every 2 hours to prevent overgrowth of translocated bacteria. Translocation was assessed by quantitative cultures of medium from the lower chamber at 2 hour intervals.
As a model of the movement of GAS from the pharyngeal mucosa or skin surface into underlying tissue, GAS translocation was studied in vitro through keratinocyte monolayers. Two hours after inoculation onto the surface of a confluent keratinocyte monolayer, wild-type GAS was detected in the culture medium below the membrane support, indicating migration of the organisms through the monolayer. At each of several intervals after inoculation, approximately 20 to 100 times as many GAS were recovered below monolayers inoculated with wild-type GAS compared to those inoculated with the acapsular mutant strain.(Figure 12a). […] Compared to wild-type GAS strain 950771, the efficiency of translocation was similar for wild-type GAS strains 87-282, a highly encapsulated M-type 18 strain, and for DLS003, a poorly encapsulated M-type 3 strain. Translocation of wild-type GAS was reduced by 78% at 1 hour in experiments in which the keratinocyte monolayers were pretreated with monoclonal antibody IM7.8.1 to block interaction of the GAS capsule with CD44 . […]

human keratinocytes [3] = assay: Immunofluorescent staining of ZO-1 and E-cadherin at intercellular junctions of keratinocytes exposed to GAS; format: cell-based; details: pretreatment of keratinocytes; wild-type GAS
Method: Keratinocyte monolayers were fixed with 4% paraformaldehyde in phosphate buffered saline (PBS), washed, permeabilized with 0.1% Triton X-100 in PBS, then incubated with 0.5% bovine serum albumin in PBS to block non-specific binding sites prior to antibody staining. Primary antibodies included rabbit IgG antibody to GAS group A carbohydrate (ImmuCell, Portland, Me.) at 5 μg/ml, rat monoclonal anti-mouse CD44 (clone IM7.8. 1) (Schrager, H. M., et al., (1998) J. Clin. Invest. 101, 1708-1716) at 15 μg/ml, goat IgG anti-ezrin at 2 μg/ml (Santa Cruz Biotechnology, Santa Cruz, Calif.), goat IgG anti-Rac1 at 2 μg/ml (Santa Cruz Biotechnology), mouse anti-phosphotyrosine at 2 μg/ml (PY-Plus, Zymed Laboratories, Inc., San Francisco, Calif.), rabbit anti-ZO-1 at 2 μg/ml (Zymed), goat anti-E-cadherin at 2 μg/ml (Santa Cruz Biotechnology), and mouse anti-myc monoclonal antibody 9E10 (Santa Cruz Biotechnology). Secondary antibodies included, as appropriate, Texas red- or Alexa 660-conjugated anti-rabbit IgG (Molecular Probes, Eugene, Oreg.), Alexa 568-conjugated anti-rabbit, anti-goat, or anti-rat IgG (Molecular Probes), and FITC-conjugated anti-goat or anti-mouse IgG (Sigma), each diluted 1:250 in 0.5% BSA/PBS. Cellular actin was labeled with 165 nm phalloidin conjugated to Oregon green 514 or to Alexa 488 (Molecular Probes). […]

GAS [4] = assay: GAS attachment to murine keratinocyte cell line PAM2.12 with exogenous hyaluronic acid; format: cell-based, Streptococcus pyogenes; details: control polysaccharide, concentration printed 1 /ml
Method: For bacterial adherence assays, keratinocytes were seeded at 10^5 cells per well in collagen-coated tissue culture wells (Nalge Nunc International, Naperville, Ill.), incubated for 3 days at 34° C. in 8% CO2, washed, and overlaid with medium containing 10^6 CFU of GAS per well. After incubation for 1 hour at 34° C. in 8% CO2 the keratinocyte monolayers were washed twice to remove nonadherent bacteria, then the number of cell-associated bacteria was determined by quantitative culture after releasing the keratinocytes with try spin and lysing them in sterile water, experiments testing the effects of exogenous hyaluronic acid on GAS adherence were performed using the mouse keratinocyte cell line, PAM 2.12 (Song, I. S. 2000, Exp. Dermatol. 9:42-52). Cells were seeded in collagen-coated tissue culture wells at 10^5 cells per well, cultured for 3 days at 37° C. in 5% CO2, then inoculated with 10^6 CFU of GAS per well in medium containing exogenous hyaluronic acid (from rooster comb, Sigma Chemicals, St. Louis, Mo.), no inhibitor, or a control polysaccharide, alginic acid, a high-molecular-weight polymer of mannuronic acid and guluronic acid (Protonal Durvillea Alginate, Pronova. Biopolymer, Inc., Portsmouth, N.H.). Cells were incubated for 45 minutes at 37° C. in 5% CO2, then processed for enumeration of adherent bacteria as described above. In experiments to test whether exogenous hyaluronic acid could promote dissociation of GAS attached to keratinocytes, GAS were allowed to attach to keratinocytes in the absence of inhibitor; after 45 minutes, the medium was removed and replaced with fresh medium containing hyaluronic acid, no inhibitor, or alginic acid. After 45 minutes of incubation, the number of adherent bacteria was enumerated as described above.
To investigate the specificity of the interaction between the GAS capsule and CD44 on epithelial cells, the ability of exogenous hyaluronic acid to compete with GAS for binding to murine keratinocytes was examined. Addition of exogenous hyaluronic acid to concentration 1 mg/ml[…], inhibited GAS attachment to the murine keratinocyte cell line PAM2.12 by >95% (P<0.03, FIG. 5). A concentration of 1 /ml alginic acid, another high molecular weight acidic polysaccharide, had no effect, supporting the hypothesis that adherence depends on a specific interaction between the GAS hyaluronic acid capsule and CD44 .
In addition to the 1 mg/ml concentration of hyaluronic acid, additional trials were performed as indicated above, with a range of concentrations of hyaluronic acid added to the cells. The concentrations tested included 4 mg/ml, 2 mg/ml, 1 mg/ml, 0.75 mg/ml, 0.5 mg/ml, 0.25 mg/ml and 0.1 mg/ml. The hyaluronic acid concentrations from 4 mg/ml to 0.25 mg/ml blocked GAS binding by greater than 70%. Hyaluronic acid concentrations from 4 mg/ml to 0.5 mg/ml blocked GAS binding by greater than 80% (FIG. 6).

GAS [5] = assay: GAS translocation through abraded human skin equivalent; format: cell-based, Streptococcus pyogenes; details: pre-treated at 2 mg/ml for 1 hour; 4 hour infection period
Method: To examine GAS translocation in a model system similar to normal human skin, we utilized pseudo-organ cultures of human skin equivalent. This material is made by constructing a “dermis” that consists of human fibroblasts cultured in a collagen matrix; human foreskin keratinocytes are seeded on top of the dermal equivalent and cultured under conditions that promote differentiation into a stratified squamous epithelium with a stratum comeum. The histology of the human skin equivalent is very similar to that of normal human skin except for the absence of non-keratinocyte elements such as blood vessels and hematopoietic cells, nerves, and hair follicles. Since intact human skin is highly resistant to GAS infection, we simulated minor trauma to the superficial epidermis by abrading the surface of the skin equivalent with a cytology brush to introduce breaks in the stratum corneum. GAS were inoculated onto the surface of abraded skin equivalent that had either been pre-treated with nothing, HA, or AL at 2 mg/ml for 1 hour and translocation through the tissue was monitored by culture of GAS from the basal surface of the skin equivalent at intervals. As depicted in FIG. 10, HA inhibited translocation GAS by 91% (solid bars). In comparison the AL control prevented only 14% of bacteria from translocating through the skin equivalent during the 4 hour infection period. […]

Molecule	formation of lamellipodia in response to GAS (human keratinocytes [1])	reduction of maximum number of translocated GAS ([2]; 250 μM, at 4 hours)	earliest detectable translocation of wild-type GAS ([2]; 250 μM, delayed from 30 min without inhibitor) [h]	redistribution (loss) of ZO-1 and E-cadherin from intercellular junctions (human keratinocytes [3])	effect on GAS attachment to PAM2.12 (GAS [4])	inhibition of translocation of GAS through skin equivalent (GAS [5]) [%]	blocking of translocating GAS ([2]; 1 hour after inoculation) [%]	blocking of translocating GAS ([2]; 2 hours after inoculation) [%]
O=c1c(-c2ccc(O)cc2)coc2cc(O)cc(O)c12 [genistein]	inhibit formation of lamellipodia	approximately 80%	1	prevented				
alginic acid					no effect	14	20	25
